PubChem BioAssay AID1918995 (Molecular Pharmacology Branch, DTP, NCI, 2023)
One block for each molecule: values may come before it.

System: 324938-238-R-J1-PDC complex spheroid growth, % test/control
Experiment: Anticancer human tumor 324938-238-R-J1-PDC patient-derived bladder carcinoma cell line growth inhibition [AhR]
Conditions: for IC50: curve of first compound; for viability, T/C: stronger effect = lower value
In short: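 Agents were dosed in half-log steps down from roughly clinical Cmax, or from 10 microM where Cmax was unknown, alone and with AhR antagonists. Read-out: percent test/control growth of tumor spheroids containing HUVEC and MSC stromal cells.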

[1] = second compound 0.1 µM, first compound 0.0316 µM
[2] = second compound 0.1 µM, first compound 0.1 µM
[3] = second compound 0.316 µM, first compound 0.0316 µM
[4] = second compound 0.316 µM, first compound 0.1 µM
[5] = second compound 1 µM, first compound 0.0316 µM
[6] = second compound 1 µM, first compound 0.1 µM
[7] = second compound 3.16 µM, first compound 0.0316 µM
[8] = second compound 3.16 µM, first compound 0.1 µM
[9] = second compound 10 µM, first compound 0.0316 µM
[10] = second compound 10 µM, first compound 0.1 µM
[11] = second compound 0.1 µM, first compound 0.316 µM
[12] = second compound 0.1 µM, first compound 1 µM
[13] = second compound 0.1 µM, first compound 3.16 µM
[14] = second compound 0.1 µM, first compound 10 µM
[15] = second compound 0.316 µM, first compound 0.316 µM
[16] = second compound 0.316 µM, first compound 1 µM
[17] = second compound 0.316 µM, first compound 3.16 µM
[18] = second compound 0.316 µM, first compound 10 µM
[19] = second compound 1 µM, first compound 0.316 µM
[20] = second compound 1 µM, first compound 1 µM
[21] = second compound 1 µM, first compound 3.16 µM
[22] = second compound 1 µM, first compound 10 µM
[23] = second compound 3.16 µM, first compound 0.316 µM
[24] = second compound 3.16 µM, first compound 1 µM
[25] = second compound 3.16 µM, first compound 3.16 µM
[26] = second compound 3.16 µM, first compound 10 µM
[27] = second compound 10 µM, first compound 0.316 µM
[28] = second compound 10 µM, first compound 1 µM
[29] = second compound 10 µM, first compound 3.16 µM
[30] = second compound 10 µM, first compound 10 µM
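Note: spheroids exposed to agents for seven days before viability read.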

IC50 (second compound 0.1 µM): 27.7 nM
IC50 (second compound 0.316 µM): 20.4 nM
IC50 (second compound 1 µM): 21.9 nM
IC50 (second compound 3.16 µM): 14.2 nM
IC50 (second compound 10 µM): 16.8 nM
SMILES: CC[C@@]1(O)C(=O)OCc2c1cc1n(c2=O)Cc2cc3c(CN(C)C)c(O)ccc3nc2-1 + CC(CO)NC(=O)c1cc(-c2ccc(Cl)cc2)nn(-c2cnn(C)c2)c1=O
viability, T/C (second compound 0.1 µM, first compound 0.000316 µM): 106%
viability, T/C (second compound 0.1 µM, first compound 0.001 µM): 103%
viability, T/C (second compound 0.1 µM, first compound 0.00316 µM): 89.7%
viability, T/C (second compound 0.1 µM, first compound 0.01 µM): 80.2%
viability, T/C [1]: 44.6%
viability, T/C [2]: 16.7%
viability, T/C (second compound 0.316 µM, first compound 0.000316 µM): 102%
viability, T/C (second compound 0.316 µM, first compound 0.001 µM): 106%
viability, T/C (second compound 0.316 µM, first compound 0.00316 µM): 100%
viability, T/C (second compound 0.316 µM, first compound 0.01 µM): 72.6%
viability, T/C [3]: 36.5%
viability, T/C [4]: 18.1%
viability, T/C (second compound 1 µM, first compound 0.000316 µM): 87.4%
viability, T/C (second compound 1 µM, first compound 0.001 µM): 97.9%
viability, T/C (second compound 1 µM, first compound 0.00316 µM): 89.6%
viability, T/C (second compound 1 µM, first compound 0.01 µM): 73%
viability, T/C [5]: 39.4%
viability, T/C [6]: 17.6%
viability, T/C (second compound 3.16 µM, first compound 0.000316 µM): 74%
viability, T/C (second compound 3.16 µM, first compound 0.001 µM): 85.4%
viability, T/C (second compound 3.16 µM, first compound 0.00316 µM): 76.3%
viability, T/C (second compound 3.16 µM, first compound 0.01 µM): 57.2%
viability, T/C [7]: 32.4%
viability, T/C [8]: 21%
viability, T/C (second compound 10 µM, first compound 0.000316 µM): 69.4%
viability, T/C (second compound 10 µM, first compound 0.001 µM): 69.7%
viability, T/C (second compound 10 µM, first compound 0.00316 µM): 61.4%
viability, T/C (second compound 10 µM, first compound 0.01 µM): 59.6%
viability, T/C [9]: 40.4%
viability, T/C [10]: 22.6%

IC50 (second compound 0.1 µM): < 31.6 nM
IC50 (second compound 0.316 µM): < 31.6 nM
IC50 (second compound 1 µM): < 31.6 nM
IC50 (second compound 3.16 µM): < 31.6 nM
IC50 (second compound 10 µM): 38.6 nM
SMILES: Nc1ccn(C2OC(CO)C(O)C2(F)F)c(=O)n1 (stereo not given) + CC(CO)NC(=O)c1cc(-c2ccc(Cl)cc2)nn(-c2cnn(C)c2)c1=O
viability, T/C [1]: 36.8%
viability, T/C [2]: 24.1%
viability, T/C [11]: 18.3%
viability, T/C [12]: 17.9%
viability, T/C [13]: 15.3%
viability, T/C [14]: 12.3%
viability, T/C [3]: 34.3%
viability, T/C [4]: 27.3%
viability, T/C [15]: 21.7%
viability, T/C [16]: 18.6%
viability, T/C [17]: 16%
viability, T/C [18]: 11.6%
viability, T/C [5]: 39%
viability, T/C [6]: 30.7%
viability, T/C [19]: 20.2%
viability, T/C [20]: 19.9%
viability, T/C [21]: 17.6%
viability, T/C [22]: 12.9%
viability, T/C [7]: 43.2%
viability, T/C [8]: 38.6%
viability, T/C [23]: 19.3%
viability, T/C [24]: 19.8%
viability, T/C [25]: 18.9%
viability, T/C [26]: 11.8%
viability, T/C [9]: 51.3%
viability, T/C [10]: 43.1%
viability, T/C [27]: 24.9%
viability, T/C [28]: 21.4%
viability, T/C [29]: 19.1%
viability, T/C [30]: 14.2%

IC50 (second compound 0.1 µM): 8950 nM
IC50 (second compound 0.316 µM): 7370 nM
IC50 (second compound 1 µM): > 10000 nM
IC50 (second compound 3.16 µM): > 10000 nM
IC50 (second compound 10 µM): < 31.6 nM
SMILES: COc1ccc([C@@H](O)c2cc(-c3ncnc4cc(N5CCOCC5)ccc34)c(F)cc2Cl)nn1 + Cc1cncc(-c2nc(NCCc3c[nH]c4ccccc34)c3ncn(C(C)C)c3n2)c1
viability, T/C [1]: 152%
viability, T/C [2]: 91.7%
viability, T/C [11]: 96.2%
viability, T/C [12]: 89.5%
viability, T/C [13]: 63.5%
viability, T/C [14]: 51.4%
viability, T/C [3]: 116%
viability, T/C [4]: 125%
viability, T/C [15]: 81.6%
viability, T/C [16]: 94.9%
viability, T/C [17]: 81%
viability, T/C [18]: 38.1%
viability, T/C [5]: 137%
viability, T/C [6]: 112%
viability, T/C [19]: 119%
viability, T/C [20]: 86.1%
viability, T/C [21]: 79.2%
viability, T/C [22]: 64.2%
viability, T/C [7]: 108%
viability, T/C [8]: 80.2%
viability, T/C [23]: 86.3%
viability, T/C [24]: 69.8%
viability, T/C [25]: 43.4%
viability, T/C [26]: 58.5%
viability, T/C [9]: 3.67%
viability, T/C [10]: 4.08%
viability, T/C [27]: 3.62%
viability, T/C [28]: 2.73%
viability, T/C [29]: 3.64%
viability, T/C [30]: 3.08%
